The text below walks through data of BindingDB's records for doi:10.1016/j.bmc.2009.08.047 (University of Padova, 2009).

The experiment concerns the target Casein kinase II subunit alpha (Rattus norvegicus, UniProt P19139). Nature of the experiment: CK2 Phosphorylation Assay. As to conditions: pH 7.5; 37 °C. The procedure:
Inhibitory effect of test compound was assessed in reaction buffer containing purified CK2, synthetic peptide substrate, and [gamma-33P]ATP. Assays were stopped by addition of 0.5 M orthophosphoric acid before spotting aliquots onto phosphocellulose filters. Filters were washed in 75 mM phosphoric acid (5-10 mL/each) four times then once in methanol and dried before counting. Inhibition constants were determined from Lineweaver-Burk double-reciprocal plots of data obtained in experiments run at fixed concentration of peptide substrate and at increasing concentrations of ATP either in the absence or in the presence of variable concentrations of inhibitor. Alternatively inhibition constants were also deduced from the IC50/Ki Cheng-Prusoff relationship.

Casein kinase II subunit alpha, sequence (P19139 whole entry): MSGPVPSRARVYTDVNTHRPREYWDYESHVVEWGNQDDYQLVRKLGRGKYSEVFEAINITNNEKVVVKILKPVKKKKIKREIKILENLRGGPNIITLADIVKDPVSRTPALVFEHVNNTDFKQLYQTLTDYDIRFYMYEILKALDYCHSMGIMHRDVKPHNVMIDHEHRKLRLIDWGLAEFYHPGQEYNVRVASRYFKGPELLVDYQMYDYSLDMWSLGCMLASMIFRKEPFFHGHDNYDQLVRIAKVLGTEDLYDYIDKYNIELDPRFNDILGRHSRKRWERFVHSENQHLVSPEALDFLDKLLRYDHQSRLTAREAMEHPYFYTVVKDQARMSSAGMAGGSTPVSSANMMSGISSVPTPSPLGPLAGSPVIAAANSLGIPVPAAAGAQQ

A word on the Ki: it is a dissociation constant, usually derived from enzyme kinetics or from competition with a known ligand. As for `Brc1c(I)c(I)c2[nH]cnc2c1I` [iodinated benzimidazole, 3a], the Ki is 100 nM.
